Here are results for one molecule from US7582786B2, “Synthetic catalytic free radical scavengers useful as antioxidants for prevention and therapy of disease” (Eukarion Inc., priority 1996, dated 2009).

In data set [1] the test system is Rat hippocampal slices in culture. Put plainly: Beta-amyloid peptide-induced cytotoxicity in hippocampal slice cultures. Type of data set: cell-based. To be noted: C7 25 μM. How it is done:
Rat hippocampal slices in culture were incubated with the beta-amyloid peptide (1-42) at the indicated concentrations. Cell viability was assessed by two criteria: release of lactate dehydrogenase (L*H) into the culture medium and staining with propidium […] iodide (PI) which binds to exposed DNA.
Rat hippocampal slice cultures were incubated with the beta-amyloid peptide (1-42) at the indicated concentrations. Cell viability was assessed by two criteria: release of lactate dehydrogenase (L*H) into the culture medium and staining with propidium iod*de (PI) which binds to exposed DNA.

Another data set relates to Rat brain slices. Put plainly: Rat brain slice ischemia/reoxygenation EPSP system. Type of data set: cell-based. To be noted: 50 μM C7. How it is done:
A widely used assay to determine the therapeutic potential of molecules in brain ischemia (stroke) consists of evaluating their ability to prevent irreversible damage induced by an anoxic episode in brain slices maintained under physiological conditions. Rat brain slices were maintained at 35° C. in an interface chamber in an artificial cerebrospinal fluid containing: 124 mM NaCl, 3 mM KCl, 1.25 mM KH2PO4, 3 mM CaCl, 1 mM MgCl2, 26 mM NaHCO3, 10 mM D-glucose, and 2 mM L-ascorbate, continuously gassed with a mixture of O2:CO2 (95:5). The atmosphere of the chamber was also continuously gased with the mixture of O2:CO2 (95:5), except during the-anoxic episode when it was replaced by N2. Axons were electrically stimulated and the evoked excitatory post-synaptic potentials (EPSPs) were recorded using microelectrodes.
The extent of permanent damage can be quantified by measuring both the amplitude (in mV) and the initial slope (in mV/msec) of the EPSP.
After 5 minutes of baseline recording, O2 was replaced by N2 for an average of 5 minutes. O2 was then reintroduced and recording was continued for another 50 minutes. […] In contrast, recovery in untreated brain slices was only about 40% of pre-ischemia levels.
As an additional assessment of efficacy, the percentage of viable slices following repeated ischemic episodes was evaluated. […]

Another data set has as its system MRL/lpr mice. Put plainly: Lifespan of autoimmune MRL/lpr mice. Particulars: 1 mg/mouse intraperitoneally three times per week. Type of data set: in vivo. The text has this: MRL/lpr mice develop autoantibodies and numerous autoimmune associated pathologies and die prematurely (mean lifespan ˜150 days). They are considered a mouse model for autoimmune disorders such as lupus. […] Control mice received vehicle injections only or were left untreated.
MRL/lpr mice develop autoantibodies and numerous autoimmune associated pathologies and die prematurely (mean lifespan˜150 days). They are considered a mouse model for autoimmune disorders such as lupus. […] Control mice received vehicle injections only or were left untreated.

In another data set the test system is Hippocampal slices. Kind of data set: Lactic acid-induced lipid peroxidation in hippocampal slices. To be noted: C7 50 μM, 30 mM lactate pH 5.0, 100 minutes. Type of data set: cell-based, rat. How it is done:
Hippocampal slices (400 μm thick) were obtained from Sprague-Dawley rats (150-200 g) and collected in preoxygenated (95% O2/5% CO2) Krebs-Ringer phosphate medium (pH 7.4) containing NaCl 120 mM, KCl 5 mM, CaCl2 1.3 mM, MgCl2 1.2 mM, NaPhosphate 16 mM (pH 7.4) and glucose 10 mM. After 15 minutes preincubation in a water bath at 35° C. under agitation, the buffer was replaced with the same buffer (control) or a modified buffer (lactate buffer) containing NaCl 90 mM, KCl 5 mM, CaCl2 1.3 mM, MgCl2 1.2 mM, NaPhosphate 16 mM and lactic acid 30 mM (pH 5.0). […] After 100 minutes, slices were collected and homogenized in 0.9 ml of TCA 5%, whereas 0.35 ml of TCA 5% was added to 0.5 ml of the incubation medium. Lipid peroxidation was measured by adding 0.25 ml of a thiobarbituric acid reagent (TBAR) to 0.85 ml of the TCA extracts and incubating the mixture for 60 minutes at 85-93° C. Lipids were then extracted with 2×0.5 ml 1-butanol by vortexing for 10 seconds, then centrifuging at 2,000 rpm for 10 minutes. The absorbance of peroxidized lipids in the alcohol phase was measured in a spectrophotometer at 532 nm. Data were expressed as nmoles of malondialdehyde (MDA) using authentic MDA to establish a standard curve. Proteins were measured from an aliquot of the TCA extracts using the method of Bradford and the final results were calculated as nmoles MDA formed/mg protein.

Data set [2] has as its system isolated iron-overloaded rat hearts. Put plainly: Isolated iron-overloaded rat hearts submitted to ischemia and reperfusion (function and electron microscopy). How it is done: Rats received an intramuscular injection of 0.25 ml of an iron-dextran solution (100 g iron hydroxide, 99 g dextran, water up to 1 l) every third day during a 5-week period to achieve a significant iron overload in cardiac tissue. At the end of this treatment, rats were anesthetized with sodium pentobarbital (40 mg/kg) and heparin (1,000 IU/kg) was administered via a femoral vein. Hearts were then removed and rapidly perfused through the aorta according to the technique described by Langendorff [Langendorff, O., Pflügers Arch. 61: 291, 1895] at a constant flow rate of 11 ml/minute. The perfusion fluid was a modified Krebs-Henseleit buffer containing (in mmol/l): NaCl 118, KCl 5.9, NaHCO3 25, MgCl2 1.2, NaH2PO4 0.6, CaCl2 2.4, Glucose […]. pH was maintained at 7.4±0.05 when the perfusion medium was saturated with O2—CO2 (95%-5%) at 37° C. The perfusion apparatus was fully thermostated such that the temperature of the perfusion medium was 37.0±0.5° C. when it reached the aorta. An ultra-thin balloon was inserted in the left ventricle immediately after the initiation of aortic perfusion and was inflated so as to obtain an end-diastolic pressure of 5 mm Hg. A 15 minute stabilization period was initiated immediately following balloon placement. At the end of this period, systolic and diastolic ventricular pressures and heart beat rate (HR) were recorded through a pressure transducer linked to the ventricular balloon. Left Ventricular Developed Pressure (LVDP) was calculated by the difference between systolic and diastolic pressure and the product HR×LVDP was taken as an index of oxygen consumption. Hearts were then subjected to a 15 minute total global normothermic ischemia, followed by 15 minutes of reperfusion with the perfusion medium used initially. During this 15 minute reperfusion, heart rate, and diastolic and systolic pressures were monitored. Early ventricular fibrillations were analyzed 1 min. after the start of the reperfusion.
Three experimental groups were studied.
After the 15 minute reperfusion, 3 hearts in each group were prepared for electron microscopy by perfusion with 2.5% glutaraldehyde. Ultra-thin slices (500-600 Å thickness) were examined.
Mitochondria were classified into Type A (normal), Type B (swollen, unbroken), and Type C (ruptured membranes). Sarcomeres were classified into Type A (normal) and Type B (contacted and/or necrosis). The results are expressed as percentages.

Where [3] appears, read: 1 minute after reperfusion, DMTU 10 mM, C7 50 μM.
[4] abbreviates: 15 minutes after reperfusion, DMTU 10 mM, C7 50 μM.
[5] abbreviates: Before ischemia, DMTU 10 mM, C7 50 μM.
Where [6] appears, read: electron microscopy after 15 minute reperfusion.

Entries after “also recorded” stand apart in the source; their conditions may differ.

As to `[Cl][Mn]1[O]c2ccccc2C=NCCN=Cc2ccccc2[O]1` [Compound C7], in data set [1], the “protection from beta-amyloid peptide-induced cytotoxicity” value is listed as “protect neurons; also recorded: protects neuronal tissue”. Moreover, the “percentage of viable slices following repeated ischemic episodes” value in the data set on Rat brain slices is given as 70%. For the same molecule, the lifespan entry in the data set on MRL/lpr mice is given as “prolongs the life”. The “lactate-induced increase in lipid peroxidation” value in the data set on Hippocampal slices is listed as “totally abolished; also recorded: protects”. For the same molecule, in data set [2] (setting [3]), the DP is 5.8 ± 0.5#± mm Hg, the HR is on record as 130 ± 13 beats/min, the “HR × LVDP” value is given as 9.9 ± 0.8#± ×10.3 and the SP is recorded as 72 ± 8 mm Hg. For the same molecule, in data set [2] (setting [3]), the “VF, number of hearts exhibiting episodes of ventricular fibrillation” value was 2/8. In data set [2] (setting [4]), this molecule gave a DP of 8.3 ± 0.6 mm Hg, an HR of 241 ± 15 beats/min and an SP of 92 ± 15 mm Hg. Besides, in data set [2] (setting [5]), the DP came out at 5.4 ± 0.3 mm Hg, the HR is listed as 278 ± 7 beats/min, the “HR × LVDP” value came out at 23.5 ± 0.9 ×10.3 and the SP turned out to be 90 ± 2 mm Hg. For the same molecule, the “protection of hearts from ischemia/reoxygenation damage” value in data set [2] (C7 50 μM) is listed as “effectively protected hearts”. In data set [2] (setting [6]), the “Mitochondria Type A (normal)” value was 31.0#± %, the “Mitochondria Type C (ruptured membranes)” value is given as 53.8#± %, the “Sarcomeres Type A (normal)” value is given as 60.6#± % and the “Sarcomeres Type B (contacted and/or necrosis)” value is given as 39.4#± %.
